Data taken from patent US20160151403A1, “SMALL MOLECULE MODULATORS OF P53 FAMILY SIGNALING” (The Trustees of the University of Pennsylvania, priority 2006, published 2016).
Entries after “also recorded” stand apart in the source; their conditions may differ.

Columns and labels:
[1] = tested on: DR5 and p21 in HCT116/p53(+/+) cells; assay: Western blot of p53 target genes DR5 and p21 in HCT116/p53(+/+) cells; format: cell-based, human; conditions: parental HCT116 (p53+/+) cells, FIG. 2A
Description: (§1) FIGS. 2A-2B show protein levels of p53 target genes p21 and DR5 were induced by selected compounds in HCT/p53(+/+) cells (A) or HCT/p53(−/−) cells (B). In A, doses of compounds (μM) are listed above each lane. Cells treated with compounds were harvested and lysed for SDS-PAGE and immunoblotted with p21 or DR5 antibodies. Ran was used as a protein loading control. Doses of compounds in B were as follows: 2 μM for #15, 12 μM for #1 and #23, 20 μM for #20 and #32, 100 μM for #33, 200 μM for #5, #8, #12, #16, #17, and #22, and 400 μM for #3. The dose for adriamycin was 0.2 μg/ml. Cells were incubated for 16 hours at 37° C. with the various drugs prior to cell harvest;
(§2) Cells were collected and protein concentration was quantified by the Bio-Rad protein assay prior to SDS-PAGE. Proteins were transferred to a PVDF membrane (Immobilon-P, Millipore Corporation, Bedford, Mass.) by a semi-dry transfer apparatus (Bio-Rad Laboratories, Hercules, Calif.). The membranes with transferred proteins were blotted with 10% W/V non-fat dry milk and then incubated with the primary antibody and subsequently secondary antibodies, which were labelled by horseradish peroxidase, or infrared dyes (IR). Signals were visualized by either ECL (Amersham Pharmacia Biotech, England, UK) and exposed to an X-ray film, or scanned by the Odyssey Infared Imaging System (LI-COR Biosciences, Lincoln, Nebr.). Anti-p53, DO-1, was from Santa Cruz biotechnology, Inc. (Santa Cruz, Calif.), anti-p73 (AB-1) and anti-p21 (AB-1) were obtained from Calbiochem (San Diego, Calif.). Anti-ser20 of p53 Cell were obtained from Signaling Technology (Danvers, Mass.) and anti-DR5 antibody was obtained from Cayman Chemical (Ann Arbor, Mich.).
The chemical library screening was directed at restoring “p53 responses” in p53-deficient cells. The small molecules identified by the cell-based screening procedure appeared to be able to restore p53 responses in p53-deficient colon tumors and to eliminate viable cells. Their function was further tested on wild-type p53-expressing and p53-knockout HCT116 colon adenocarcinoma cell lines. A number of candidate modulators of signaling by the p53 family appeared to induce expression of p53 target genes such as p21 or DR5(13) either with or without stabilizing p53 protein in HCT116 cells (FIG. 2A).

[2] = Toxicity in xenograft-bearing mice; format: in vivo; conditions: i.p., #1 100 mg/kg, #14 50 mg/kg, #23 10 mg/kg
Description: Compounds #1, #14, #17, and #23 were tested in colon-tumor xenograft-bearing mice in order to evaluate their toxicities and potential anti-tumor effects (FIG. 4). […] The initial doses were chosen below maximal tolerated doses based on the NCI DTP toxicology databases for chemical compound testing in vivo so that mice would survive drug administration and allow subsequent evaluation of anti-tumor effects. p53-null HCT116 xenografts were first tested to document anti-tumor effects in p53-deficient tumors and an experiment to simulate therapy of established tumors was designed. A total of 2×10^6 p53-null HCT116 cells were implanted on opposite flanks subcutaneously in each of 6 nude mice in each group. When tumor masses grew to about 3-5 mm in diameter, drugs were administered intra-peritoneally (#1: 100 mg/kg; #14: 50 mg/kg; #23: 10 mg/kg), and on the next day additional groups received intravenous TRAIL (15) (100 μg/mice via the tail vein). Tumor weights were determined at 7 days later. […] Nonetheless in the future it may be possible to modify the structure of #17 or identify doses where synergistic interactions with TRAIL may be observed.

[3] = tested on: p73 in HCT116/p53^−/− cells; assay: Effect of p73 knockdown (si-p73 retrovirus) on compound-induced p53-responsive transcriptional activity; format: cell-based, human; conditions: retrovirus mediated si-p73, HCT116/p53^−/− cells, FIG. 5D
Description: FIGS. 5A-5D show p53 transcriptional activity is induced in DLD1 xenografts and effects of knockdown of p73 by siRNA on drug-induced transcriptional activity. DLD1/PG13 cells were inoculated subcutaneously with 5 million cells. At 24 hours later mice were treated with selected compounds (100 mg/kg for #1, 50 mg/kg for #14 and #17, and 10 mg/kg for #23), and subsequently bioluminescence imaging was carried out after 16 hours. Two weeks later, tumor masses were weighed. A, bioluminescence imaging of p53 transcriptional activity induced in vivo. B, calculated fold-induction of p53 transcriptional activity. C, inhibition of tumor growth by selected compounds. D, effects of si-TAp73 on the transcriptional activity induced by selected compounds;
pBS/U6 vector containing TAp73 RNAi were kindly provided by Leif W. Ellisen (20), Harvard Medical School, from which the expression cassette was removed and recombined to pSIREN-RetroQ (Clontech Laboratories, Inc. Mountain View, Calif.), which was reconstructed to express a blasticidin-resistant marker.
The questioned whether the p53 family member p73 is involved in the p53-responsive transcriptional activity induced by the compounds identified was then tested. p63, the other p53 family member, was not tested, because the TA form of p63 is rarely expressed in malignant and normal tissues except for germ cells of the ovary and testis.

[4] = tested on: DR5 and p21 in HCT116/p53(−/−) cells; assay: Western blot of p53 target genes DR5 and p21 in HCT116/p53(-/-) cells; format: cell-based, human; conditions: p53-null HCT116 cells, 16 hours, doses per compound in FIG. 2B
Description: as §1, §2
A number of selected compounds was further tested on HCT116/p53^−/− cells to verify the possibility of induction of p53 target gene expression in the absence of p53. […] The importance of this observation is in establishing that it is possible to identify small molecules with the potential to induce p53 target gene expression in p53-deficient cells.

γH2AX = γH2AX test (DNA damage signaling); format: cell-based; conditions: after treatment
HCT116/p53^−/− cells = assay: Flow cytometry cell cycle profile, HCT116/p53(-/-); format: cell-based, human; conditions: for sub-G1 peak (apoptosis): HCT116/p53^−/−, #17 200 μM, #23 10 μM
Description: FIGS. 3A-3F show: Structures (A) of isolated compounds and summary of their effects on the p53 family and transcriptional targets (B). Cell cycle profiles of HCT/p53(+/+) and HCT/p53(−/−) in response to treatment by selected compounds (C-E). The dose of #17 was 200 μM and for #23 it was 10 μM. F, p73 protein levels were elevated in HCT116/p53(−/−) cells in response to treatment by selected compounds at various concentrations as indicated;
Adherent cells in a 6-well plate were trypsinized and collected in 15 ml centrifuge tubes to which were added the originally floating cells. The collected cells were ethanol-fixed and stained with propidium iodide (Sigma, St. Louis, Mo.). The DNA content of the stained cells was then measured using an Epics Elite flow cytometer (Beckman-Coulter, Fullerton, Calif.).
The ability of selected compounds from the chemical library screen to induce apoptosis of human colon tumor cells and the dependence of their effects on endogenous p53 status was further evaluated.

Structure (SMILES)	expression of p53 targets DR5 and p21 proteins [1]	overt toxicities in treated mice [2]	compound-induced p53-responsive transcriptional activity after knockdown of p73 [3]	DR5 and p21 expression (p53 target genes) [4]	γH2AX (γH2AX)	sub-G1 peak (apoptosis) (HCT116/p53^−/− cells)	G1 arrest on apoptosis induction (HCT116/p53^−/− cells; p53-null HCT116 cells, compared with wild-type p53-expressing HCT116)
CO[C@H]1[C@@H](O)[C@@H](C)O[C@H](O[C@H]2[C@H](Oc3cccc4c(O)c5c(=O)oc6ccc(C)c7c(=O)oc(c34)c5c67)O[C@H](C)[C@H](O)[C@@H]2O)[C@@H]1O [#1]	increased expression of DR5 and p21 proteins	No overt toxicities were observed	suppressed	increasing expression of the p53 target genes DR5 and p21; also recorded: strongly induce p53 target gene expression	not	induced a sub-G1 peak characteristic of apoptosis	–
COc1cccc2c1C(=O)c1c(O)c3c(c(O)c1C2=O)CC(O)(/C(C)=N/O)CC3OC1CC(N)C(O)C(C)O1 (stereo not shown) [#14]	increased expression of DR5 and p21 proteins	No overt toxicities were observed	suppressed	increasing expression of the p53 target genes DR5 and p21; also recorded: strongly induce p53 target gene expression	positive	induced a sub-G1 peak characteristic of apoptosis	–
COc1cccc2c1C(=N)c1c(O)c3c(c(O)c1C2=O)C[C@@](O)(C(C)=O)C[C@@H]3O[C@H]1C[C@H](N)[C@H](O)[C@H](C)O1 [#23]	increased expression of DR5 and p21 proteins	No overt toxicities were observed	suppressed	increasing expression of the p53 target genes DR5 and p21; also recorded: strongly induce p53 target gene expression	positive	induced a sub-G1 peak characteristic of apoptosis	greatly reduced G1 arrest
